For 17 molecules, Activity, Ratio and inhibition results are on record in ChEMBL document CHEMBL2157992, “SAR studies of epoxycurcuphenol derivatives on leukemia CT-CD4 cells” (2012).

The inhibition is the share of the control response that was lost under treatment.

Common to all, as to assay type: functional
Experiment [1] relates to Jurkat. Description: Antiproliferative activity against human Jurkat cells assessed as 5th generation cell population at 10 uM after 24 hrs using CFSE staining by flow cytometry (reference value: 18.43 %).
In experiment [2] the test system is Jurkat. In words: Antiproliferative activity against human Jurkat cells assessed as proliferation index at 10 uM after 24 hrs using CFSE staining by flow cytometry relative to original parent cells (reference value: 2.48). Background: Flow cytometry measures light scatter and fluorescence of single cells or particles in a stream.
The subject of experiment [3] is Jurkat. Description: Antiproliferative activity against human Jurkat cells assessed as non proliferative fraction at 10 uM after 24 hrs using CFSE staining by flow cytometry (reference value: 0.59).
The test system of experiment [4] is Jurkat. In words: Antiproliferative activity against human Jurkat cells assessed as proliferation index of >/= 3rd generation cells at 10 uM after 24 hrs using CFSE staining by flow cytometry relative to original parent cells.
The subject of experiment [5] is Jurkat. In words: Antiproliferative activity against human Jurkat cells assessed as parent population at 10 uM after 24 hrs using CFSE staining by flow cytometry (reference value: 23.70 %).
Experiment [6] deals with Jurkat. In words: Antiproliferative activity against human Jurkat cells assessed as 2nd generation cell population at 10 uM after 24 hrs using CFSE staining by flow cytometry relative to control.
Experiment [7] concerns Jurkat. Description: Antiproliferative activity against human Jurkat cells assessed as 4th generation cell population at 10 uM after 24 hrs using CFSE staining by flow cytometry (reference value: 25. 99 %).
In experiment [8] the test system is Jurkat. In words: Inhibition of cell division in human Jurkat cells at 1 uM.
Experiment [9] deals with Jurkat. Description: Antiproliferative activity against human Jurkat cells assessed as 3rd generation cell population at 10 uM after 24 hrs using CFSE staining by flow cytometry relative to control.

As for `Cc1ccc([C@@H](C)CC[C@H]2OC2(C)C)c(O)c1` (relative stereo), the Activity worked out at 38.84% in the experiment on Jurkat [1] and 8.71% with Jurkat [5]. For the same molecule, the figures for the Ratio with Jurkat [2], in the experiment with Jurkat [3] and with Jurkat [4] were 4.77, 0.41 and 9.67, respectively.

Consider `CC[C@H](CC[C@H]1OC1(C)C)c1ccccc1O` (relative stereo), for which the Activity was 33.67% in the experiment on Jurkat [1] and 10.46% in the experiment on Jurkat [5]. Further, the Ratio with Jurkat [2] was determined as 4.38; with Jurkat [3], 0.46; with Jurkat [4] it was 9.29.

As for `CC[C@H](CC[C@@H]1CO1)c1cc(O)ccc1O` (relative stereo), the values for the Activity in the experiment on Jurkat [1] and with Jurkat [5] were 47.67% and 8.46%, respectively. The values for the Ratio with Jurkat [2], in the experiment with Jurkat [3] and in the experiment with Jurkat [4] were 5.01, 0.42 and 10.24, respectively.

Take `CC1(C)OC1CCCc1cc(O)ccc1O` (stereo unspecified): the Ratio worked out at 1.11 in the experiment with Jurkat [2], 0.94 in the experiment with Jurkat [3] and 4.76 with Jurkat [4]. The Activity is 84.84% in the experiment with Jurkat [5] and 7.31% with Jurkat [6].

Consider `Cc1cc(O)c([C@H](C)CC[C@H]2OC2(C)C)cc1O` (relative stereo), for which the values for the Activity with Jurkat [7] and in the experiment with Jurkat [5] were 13.9% and 53.81%, respectively. In addition, the Ratio worked out at 1.62 in the experiment with Jurkat [2], 0.87 with Jurkat [3] and 8.05 in the experiment with Jurkat [4]. Also, the inhibition at 1 µM in the experiment on Jurkat [8] came out at 100%.

As to `C[C@@H](CC[C@H]1OC1(C)C)c1cc(O)ccc1O` (relative stereo), the Activity in the experiment on Jurkat [1] is 64.37%; in the experiment with Jurkat [5], 6.02%. In addition, the Ratio is recorded as 6.47 with Jurkat [2], 0.39 in the experiment with Jurkat [3] and 10.81 in the experiment on Jurkat [4].

With `Cc1ccc([C@H](C)CC[C@@H]2CO2)c(O)c1` (relative stereo), the Activity was determined as 47.87% with Jurkat [1] and 6.23% with Jurkat [5]. The values for the Ratio with Jurkat [2], in the experiment with Jurkat [3] and in the experiment on Jurkat [4] were 5.86, 0.37 and 10.07, respectively.

As to `Cc1cc(O)c([C@@H](C)CC[C@@H]2CO2)cc1O` (relative stereo), the Activity is listed as 6.73% with Jurkat [9] and 89.59% in the experiment with Jurkat [5]. For the same molecule, the Ratio with Jurkat [2] came to 1.09; with Jurkat [3], 0.98; with Jurkat [4], 5.7.

In the case of `Cc1cc(O)c([C@@H](C)CC[C@H]2OC2(C)C)cc1O` (relative stereo), the Activity was 17.04% with Jurkat [9] and 67.44% in the experiment with Jurkat [5]. Moreover, the Ratio with Jurkat [2] was 1.36; in the experiment on Jurkat [3] it was 0.92; with Jurkat [4] it was 6.14. In the experiment on Jurkat [8], this molecule yielded an inhibition at 1 µM of 100%.

With `CC[C@H](CC[C@H]1OC1(C)C)c1cc(O)ccc1O` (relative stereo), the Activity stood at 13.9% in the experiment on Jurkat [7], 35.78% with Jurkat [9], 11.8% in the experiment on Jurkat [1] and 21.49% in the experiment on Jurkat [5]. The Ratio in the experiment with Jurkat [2] worked out at 2.73; in the experiment with Jurkat [3] it was 0.59; in the experiment with Jurkat [4] it was 6.16.

On to `Cc1cc(O)c([C@H](C)CC[C@@H]2CO2)cc1O` (relative stereo), for which the results for the Activity in the experiment with Jurkat [1] and with Jurkat [5] were 18.91% and 46.39%, respectively. For the same molecule, the Ratio in the experiment on Jurkat [2] came out at 1.85; in the experiment on Jurkat [3] it was 0.86; in the experiment on Jurkat [4], 7.64.

With `CC[C@@H](CC[C@@H]1CO1)c1cc(O)ccc1O` (relative stereo), the Activity came to 48.54% in the experiment on Jurkat [1] and 7.95% in the experiment on Jurkat [5]. Besides, the Ratio in the experiment with Jurkat [2] worked out at 5.06; in the experiment on Jurkat [3], 0.4; in the experiment with Jurkat [4], 10.11.

Turning to `Cc1ccc([C@@H](C)CC[C@@H]2CO2)c(O)c1` (relative stereo), the results for the Activity in the experiment on Jurkat [1] and in the experiment with Jurkat [5] were 40.06% and 5.27%, respectively. Further, the Ratio in the experiment on Jurkat [2] came out at 5.71; in the experiment with Jurkat [3], 0.3; with Jurkat [4], 9.25.

For `CC[C@H](CC[C@@H](C)O)c1ccccc1O` (relative stereo), the Activity turned out to be 46.79% with Jurkat [1] and 5.19% in the experiment on Jurkat [5]. Besides, the Ratio worked out at 6.11 in the experiment with Jurkat [2], 0.32 in the experiment on Jurkat [3] and 10.18 in the experiment on Jurkat [4].

Regarding `Cc1ccc([C@H](C)CC[C@H]2OC2(C)C)c(O)c1` (relative stereo), the Activity in the experiment on Jurkat [1] was 49.3%; in the experiment with Jurkat [5], 8.09%. Also, the results for the Ratio in the experiment with Jurkat [2], in the experiment on Jurkat [3] and in the experiment with Jurkat [4] were 5.2, 0.42 and 10.46, respectively.

Consider `CC[C@@H](CC[C@H]1OC1(C)C)c1cc(O)ccc1O` (relative stereo), for which the Activity with Jurkat [7] was 20.47%; with Jurkat [9] it was 21.3%; with Jurkat [1], 18.48%; with Jurkat [5], 20.3%. Also, the Ratio in the experiment with Jurkat [2] was determined as 3.04; in the experiment with Jurkat [3], 0.62; with Jurkat [4] it was 7.93.

Consider `CC[C@@H](CC[C@H]1OC1(C)C)c1ccccc1O` (relative stereo), for which the Activity in the experiment on Jurkat [1] was 29.37%; in the experiment with Jurkat [5] it was 11.75%. The Ratio was found to be 4.1 in the experiment with Jurkat [2], 0.48 with Jurkat [3] and 8.5 with Jurkat [4].
